Experimental data from patent US7842294B2, “Proteins belonging to the Bcl-2 family and fragments thereof, and their use in cancer patients” (Survac APS, priority 2003, dated 2010).
Values joined by “and” are separate entries in the source; they are usually repeats but may differ in a detail not shown here. Equal entries are not always repeated. Where two headings read alike, the source gives them in different places. Ends that are not written are not given here.

Key:
[1] = tested on: peptide epitope-specific interferon-γ releasing effector cells in PBL; experiment: IFN-γ ELISPOT on PBL stimulated once in vitro with peptide; assay type: cell-based, human; settings: for CTL response in cancer patients of different origin (in words): PBL from HLA-matched cancer patients; for healthy individuals with CTL response: 12 healthy HLA-A2 positive individuals; for breast cancer patients hosting an immune response: eighteen HLA-A2+ breast cancer patients; for breast cancer patients hosting an immune response / melanoma patients hosting an immune response: responder >25 spots per 10^5 cells; for melanoma patients hosting an immune response: six HLA-A2+ melanoma patients; for pancreatic cancer patients with CTL response: two HLA-A2 positive pancreatic cancer patients; for pancreatic cancer patients with response: two HLA-A3+ pancreatic cancer patients; for patients with spontaneous CTL response / patients with spontaneous CTL response (%): PBL from 15 HLA-A2 positive breast cancer patients
Method: To extend the sensitivity of the ELISPOT assay, PBL were stimulated once in vitro prior to analysis. At day 0, PBL or crushed lymph nodes were thawed and plated in 2 ml/well at a concentration of 2×10^6 cells in 24-well plates (Nunc, Denmark) in X-vivo medium (Bio Whittaker, Walkersville, Md.), 5% heat-inactivated human serum, and 2 mM of L-glutamine in the presence of 10 μM of peptide. Two days later 20 IU/ml recombinant interleukin-2 (IL-2) (Chiron, Ratingen, Germany) was added to the cultures. The cultured cells were tested for reactivity in the ELISPOT on day 12.
The ELISPOT assay was used to quantify peptide epitope-specific interferon-γ releasing effector cells as described previously (4). Briefly, nitrocellulose bottomed 96-well plates (MultiScreen MAIP N45, Millipore, Hedehusene, Denmark) were coated with anti-IFN-γ antibody (1-D1K, Mabtech, Nacka, Sweden). The wells were washed, blocked by X-vivo medium, and cells added in duplicates at different cell concentrations. Peptides were then added to each well and the plates were incubated overnight. The following day, media was discarded and the wells were washed prior to addition of biotinylated secondary antibody (7-B6-1-Biotin, Mabtech). The plates were incubated for 2 hours, washed and Avidin-enzyme conjugate (AP-Avidin, Calbiochem, Life Technologies) was added to each well. Plates were incubated at RT for 1 hour and the enzyme substrate NBT/BCIP (Gibco, Life Technologies) was added to each well and incubated at RT for 5-10 min. The reaction was terminated by washing with tap-water upon the emergency of dark purple spots. The spots were counted using the ImmunoSpot® Series 2.0 Analyzer (CTL Analyzers, LLC, Cleveland, US) and the peptide specific CTL frequency could be calculated from the numbers of spot-forming cells. All assays were performed in triplicates for each peptide antigen.

HLA-A2 = molecular target: T1, HLA-A2 (Homo sapiens, UniProt P04439, D140Y/D185E/D98H/E176V/E277Q/G131W/G231S/I119V/I121R/I166T/I218V/L300P/L318F/N151K/N90K/P208A/P217A/Q86G/Q94H/R138H/R169H/T345S); experiment: Assembly assay for peptide binding to MHC class I molecules (stabilisation of HLA from TAP-deficient T2 cells); settings: recovery of HLA-A2 measured at 50, 5, 0.5, 0.05 μM peptide
T1 construct: empty HLA molecules released upon cell lysis, from the TAP-deficient cell line T2; endogenous in cells; host or cells: T2 (TAP-deficient cell line), metabolically labelled with [35S]-methionine and lysed
Method: This assembly assay is carried out as described previously (2), and it is based on stabilisation of the HLA molecule after loading of peptide to the peptide transporter deficient cell line T2. Subsequently, correctly folded stable HLA heavy chains are immunoprecipitated using conformation dependent antibodies and the peptide binding is quantitated.
The binding affinity of the synthetic peptides (Invitrogen, Carlsbad, Calif., USA) to HLA-A2 molecules, metabolically labelled with [^35S]-methionine, was measured in the assembly assay, as described previously. The assay is based on peptide-mediated stabilisation of empty HLA molecules released upon cell lysis, from the TAP-deficient cell line T2. Stably folded HLA-molecules were immune-precipitated using the HLA class I-specific, conformation-dependent mAb W6/32, and separated by isoelectric focusing (IEF) gel electrophoresis. MHC heavy chain bands were quantified using the ImageGauge Phosphorimager program (FUJI photo film Co., Carrollton, Tex., USA). The intensity of the band is directly related to the amount of peptide-bound class I MHC complex recovered during the assay. Subsequently, the extent of stabilisation of HLA-A2 is directly related to the binding affinity of the added peptide. The recovery of HLA-A2 was measured in the presence of 50, 5, 0.5, 0.05 μM of the relevant peptide. The C50 value was calculated for each peptide as the peptide concentration sufficient for half maximal stabilisation.
The amino acid sequence of the Bcl-2 protein was screened for the most probable HLA-A2 nona- and decamer peptide epitopes, using the main HLA-A2 specific anchor residues (2). […] The assembly assay is based on stabilisation of the class I molecule after loading of different concentrations of peptide to the TAP-deficient cell line T2. Subsequently correctly folded stable MHC heavy chains are immunoprecipitated using conformation-dependent antibodies.

[2] = tested on: antigen-specific CTL in PBL; experiment: Granzyme B (GrB) ELISPOT; assay type: cell-based, human
Method: The Granzyme B (GrB) ELISPOT assay was used for measuring antigen-specific CTL cytotoxicity as described. Briefly, nitrocellulose bottomed 96-well plates (MultiScreen MAIP N45, Millipore) were coated with GrB Capture Antibody (BD Biosciences, Brondby, Denmark). The wells were washed and blocked by X-vivo medium with 5% human serum. The cells were added at different cell concentrations. T2 cells and peptides were then added to each well and the plates were incubated 4 hours, medium was discarded and the wells were washed prior to addition of GrB Detection Antibody (BD Biosciences). The plates were incubated for 2 hours, washed and Avidin horseradish peroxidase (BD Biosciences) was added to each well. Plates were incubated at RT for 1 hour AEC Substrate Reagent (BD Biosciences) was added to each well and incubated at RT for 5-10 min. The reaction was terminated by washing with tap-water upon the emergency of red spots. The spots were counted and the peptide specific CTL frequency was calculated like for the INF-γ ELISPOT. All assays were performed in duplicate or triplicates for each peptide antigen.

CD8+ T cells from PBL = experiment: FACS analysis with Pro5 MHC pentamer staining; assay type: cell-based, human; settings: breast cancer patient no. 36, PBL stimulated once in vitro, HLA-A2/Bcl-XL173-182 pentamer
[3] = four HLA-A1+ breast cancer patients
[4] = seven HLA-A1+ melanoma patients
[5] = six healthy HLA-A1+ individuals
[6] = read-out: C50 (concentration of the peptide required for half maximal binding to HLA-A2)
[7] = C50 (concentration of the peptide required for half maximal binding to HLA-A2)
[8] = six HLA-A3+ breast cancer patients, 3×10^5 cells per well, Mcl-1 study

## PAEEEEDDLY (Peptide derived from Mcl-1) [Mcl-1166-175]
[1]
  CTL response in cancer patients of different origin (in words): CTL responses were detected
[1]; [3]
  breast cancer patients with response: one of these
[1]; [4]
  melanoma patients with response: another of these
[1]; [5]
  healthy donors with response: no responses were detected

## ALSPVPPVV [Bcl85]
HLA-A2; [6]
  EC50: 1000 nM

## ELYGPSMRPL [bcl200]
HLA-A2
  C50 (concentration of the peptide required for half maximal binding to HLA-A2): did not bind

## LLSLALVGA [bcl220]
HLA-A2; [6]
  EC50: 1000 nM

## KTLLSLALV [bcl218]
HLA-A2; [7]
  EC50: 2000 nM

## VAFFSFGGAL (Peptide derived from Bcl-XL) [Bcl-XL141-150]
[1]
  healthy individuals with CTL response: no responses were detected
  CTL response in cancer patients of different origin (in words): strong and frequent CTL responses
  breast cancer patients hosting an immune response: Four out of eighteen
  melanoma patients hosting an immune response: not able to detect a response
  pancreatic cancer patients with CTL response: one of the two

## RIAAWMATY (Peptide derived from Bcl-XL) [Bcl-XL165-173]
[1]; HLA-A3+ multiple myeloma patients
  multiple myeloma patients with response: one out of four
[1]
  CTL response in cancer patients of different origin (in words): strong and frequent CTL responses
[1]; five HLA-A3+ breast cancer patients, 10^5 cells per well
  breast cancer patients with response: four out of five
[1]; four HLA-A3+ melanoma patients
  melanoma patients with response: four out of four
[1]; seven HLA-A3+ healthy individuals
  healthy individuals with response: not able to detect a response
[1]; Bcl-XL study
  pancreatic cancer patients with response: two out of two

## RIAAWMATYL (Peptide derived from Bcl-XL) [Bcl-XL165-174]
[1]
  healthy individuals with CTL response: no responses were detected
  CTL response in cancer patients of different origin (in words): strong and frequent CTL responses
  breast cancer patients hosting an immune response: four
  melanoma patients hosting an immune response: two
  pancreatic cancer patients with CTL response: one

## FTARGRFATV [bcl124]
HLA-A2; [6]
  EC50: 1000 nM

## SLALVGACI [bcl222]
HLA-A2; [6]
  EC50: 1000 nM

## YLNDHLEPWI (Peptide derived from Bcl-XL) [Bcl-XL173-182]
[1]
  healthy individuals with CTL response: no responses were detected
  CTL response in cancer patients of different origin (in words): strong and frequent CTL responses
  breast cancer patients hosting an immune response: nine out of eighteen
  melanoma patients hosting an immune response: two out of six
[1]; same CD8+ culture of breast cancer patient no. 36
  peptide specific, IFNγ secreting CD8+ T cells: around 1.4%
[2]; Bcl-XL reactive breast cancer patients no. 35 and 36
  frequency of peptide specific CTL (GrB ELISPOT): 50-100 peptide specific CTL per 3×10^5 cells
[2]; breast cancer patient no. 17
  GrB release in control patient: no GrB release was detected
CD8+ T cells from PBL
  pentamer positive T cells among CD8+ T cells: 0.24%

## YLNRHLHTWI [bcl180]
HLA-A2; [6]
  EC50: 20000 nM and 15000 nM
[1]
  patients with spontaneous CTL response: four
  patients with spontaneous CTL response (%): ≈ 25%

## TAYQSFEQV (Peptide derived from Bcl-XL) [Bcl-XL118-126]
[1]
  CTL response in cancer patients of different origin (in words): weak spontaneous CTL response

## QSLEIISRY (Peptide derived from Mcl-1) [Mcl-1177-185]
[1]
  CTL response in cancer patients of different origin (in words): CTL responses were detected
[1]; [3]
  breast cancer patients with response: three out of four
[1]; [4]
  melanoma patients with response: one out of seven
[1]; [5]
  healthy donors with response: no responses were detected

## VLVSRIAAWM (Peptide derived from Bcl-XL) [Bcl-XL161-170]
[1]
  healthy individuals with CTL response: no responses were detected
  CTL response in cancer patients of different origin (in words): strong and frequent CTL responses
  breast cancer patients hosting an immune response: six
  pancreatic cancer patients with CTL response: one

## NIALWMTEYL [bcl172]
HLA-A2; [6]
  EC50: 2000 nM
[1]
  patients with spontaneous CTL response: eight
  patients with spontaneous CTL response (%): 50%

## ALVGACITL [Bcl224]
HLA-A2; [6]
  EC50: 700 nM

## RTKRDWLVK (Peptide derived from Mcl-1) [Mcl-1300-308]
[1]; 10 healthy HLA-A3+ individuals
  healthy donors with response: no responses were detected
[1]
  CTL response in cancer patients of different origin (in words): strong and frequent CTL responses
[1]; [8]
  breast cancer patients with response: three
[1]; Mcl-1 study
  pancreatic cancer patients with response: one of these

## RLLFFAPTR (Peptide derived from Mcl-1) [Mcl-195-103]
[1]; 10 healthy HLA-A3+ individuals
  healthy donors with response: no responses were detected
[1]
  CTL response in cancer patients of different origin (in words): strong and frequent CTL responses
[1]; [8]
  breast cancer patients with response: five
[1]; six HLA-A3+ patients suffering from B-CLL
  B-CLL patients with response: two
[1]; Mcl-1 study
  pancreatic cancer patients with response: two out of two

## WMATYLNDHL (Peptide derived from Bcl-XL) [Bcl-XL169-178]
[1]
  CTL response in cancer patients of different origin (in words): weak spontaneous CTL response

## SLKTLLSLAL [bcl216, SLKTLLSLAL]
HLA-A2
  C50 (concentration of the peptide required for half maximal binding to HLA-A2): did not bind

## RLKRDWLVK (Modified Mcl-1 peptide) [Mcl-1300-308L2]
[1]; number examined not given, data not shown
  breast cancer patients with spontaneous immune response: two

## AAAGPALSPV [bcl80]
HLA-A2; [7]
  EC50: 36000 nM

## WLSLKTLLSL [bcl214]
HLA-A2; [6]
  EC50: 3000 nM
[1]
  patients with spontaneous CTL response: eleven
  patients with spontaneous CTL response (%): ≈ 75%
  pancreatic cancer patients with CTL response: both
[1]; ten HLA-A2 positive CLL patients, reactivity against bcl208 and bcl214, not broken down by peptide
  CLL patients with Bcl-2 response: five
[1]; three AML patients, reactivity against bcl208 and bcl214, not broken down by peptide
  AML patients with Bcl-2 response: two
[2]; breast cancer patient no. 16 and healthy control h1
  GrB release in controls: no GrB release was detected
